In patent US20180030091A1, “COLLAGEN-BINDING SYNTHETIC PEPTIDOGLYCANS FOR USE IN VASCULAR INTERVENTION” (Purdue Research Foundation, priority 2010, published 2018):
Where no end group is shown, it is not given here. The star is where a group is joined. Dansyl = CN(C)c1cccc2c(S(=O)(=O)*)cccc12

Key:
[1] = tested on: Human platelet-rich plasma on fibrillar collagen; experiment: Platelet binding to collagen under flow; assay type: cell-based; conditions: 50 μM for 15 min; 2 mL/hr for 1 hour, shear rate 355 s^−1
Method: To mimic physiologic conditions with flowing blood, platelet binding to collagen surfaces under flow conditions was evaluated. Flow kits were obtained from Ibidi (Munchen, Germany). Each channel was coated with fibrillar collagen (Chronolog). Excess collagen was removed from the flow channel by pushing 1×PBS through the channel with a syringe. DS-SILY18 was incubated in the channel at a concentration of 50 μM for 15 min at 37° C., and unbound peptidoglycan was rinsed by pushing 1×PBS through the channel with a syringe. The control channel consisted of collagen not treated with peptidoglycan.
Platelet rich plasma was pushed through the channels at 2 mL/hr for 1 hour, corresponding to a shear stress of 3.55 dynes/cm^2 and a shear rate of 355 s^−1. Unbound platelets were rinsed from the channel by pushing through 1×PBS. Adhered platelets were fixed in the channel with 10% formaldehyde. Platelets were permeabilized and actin filaments were stained with phalloidin-Alexa Fluor 488 (Invitrogen).

[2] = tested on: HCA SMCs; experiment: Elastin measurement by Fastin assay; assay type: cell-based, Human; conditions: gels cultured for 10 days
Method: Collagen gels seeded with HCA SMCs were prepared as described in EXAMPLE 25. Differentiation medium was changed every three days and gels were cultured for 10 days. Collagen gels containing no cells were used as a control. Gels were rinsed in 1×PBS overnight to remove serum protein, and gels were tested for elastin content using the Fastin elastin assay per manufacturers protocol (Biocolor, County […].). Briefly, gels were solubilized in 0.25 M oxalic acid by incubating at 100° C. for 1 hr. Elastin was precipitated and samples were then centrifuged at 11,000×g for 10 min. The solubilized collagen supernatant was removed and the elastin pellet was stained by Fastin Dye Reagent for 90 min at room temperature. Samples were centrifuged at 11,000×g for 10 min and unbound dye in the supernatant was removed. Dye from the elastin pellets was released by the Fastin Dye Dissociation Reagent, and 100 μL samples were transferred to a 96-well plate (Costar). Absorbance was measured at 513 nm, and elastin content was calculated from an α-elastin standard curve.

[3] = tested on: Human platelets on Type I fibrillar collagen; experiment: Inhibition of platelet activation on fibrillar collagen after 24 hour rinse (PF4, NAP2); assay type: cell-based; conditions: 50 μM, incubated 15 min, rinsed for 24 hours
Method: Type I fibrillar collagen from Chronolog was diluted in isotonic glucose to a concentration of 50 μg/mL. 50 μL of collagen solution was added to each well of a high bind 96-well plate. The plate was incubated overnight at 4° C., and then rinsed 3× with 1×PBS. For microplate assays, peptidoglycan was diluted in 1×PBS at concentrations between 0.0001 μM to 100 μM and 50 μL solution was added to the collagen coated wells. DS, peptide, or 1×PBS were also added to collagen coated wells as controls. Treatments were incubated at 37° C. with shaking at 200 rpm for 15 min. Wells were then rinsed of unbound treatment by removing the treatment solution, adding PBS, and shaking the wells for 24 hours. During the 24 hours, PBS solution was changed 3 times.
Human whole blood was collected from healthy volunteers by venipuncture. The first 5 mL of blood was discarded and approximately 20 mL was then collected into citrated glass vacutainers (BD Bioscience). Blood was centrifuged in the glass tube for 20 min at 200 g at 25° C. The top layer of the centrifuged blood, the platelet rich plasma (PRP), was used for platelet experiments.
PRP (50 μL/well) was added to the microplate for 1 hour at room temperature without shaking. After 1 hour of incubation, 45 μL of PRP was removed from each well and added to a microcentrifuge tube containing […] ETP (107 mM EDTA, 12 mM theophylline, and 2.8 mM prostaglandin E1) to inhibit further platelet activation. These tubes were spun at 4° C. for 30 min at 2000 g to pellet the platelets. The supernatant (platelet serum) was collected for ELISA studies to test for the presence of platelet activation markers PF-4 and NAP2. Sandwich ELISAs were utilized in order to detect each protein. The components for both sandwich ELISAs were purchased from R&D Systems and the provided protocols were followed. Platelet serum was diluted 10,000 times in 1% BSA in 1×PBS for values to fall within a linear range.
Platelet activation was measured through release of platelet factor 4 (PF4) and β-thromboglobulin (NAP2). […] Since the high SILY/DS ratio is expected to provide higher binding affinity to the collagen surface due to multiple interactions, peptidoglycans with the higher SILY/DS ratios were prepared.
The number of peptides per DS molecule was further increased to 18 to create the peptidoglycan DS-SILY18, and the concentration of molecule needed to inhibit platelet activation was tested. […] Within solubility limits, the number of peptides can be increased to achieve maximal platelet inhibition as well as to reduce diffusion over time, where a higher level of peptidoglycans on the denuded vessel wall is sustained.

[4] = target: T1, collagen (Bos taurus, UniProt P02453+P02465); experiment: Collagen fibrillogenesis by turbidity at 313 nm; assay type: biochemical; conditions: 4 mg/mL collagen, 10:1 collagen:treatment unless otherwise indicated
T1 construct: purchased Inamed, Freemont, Calif; (Nutragen)
Method: Collagen fibrillogenesis was monitored by measuring turbidity related absorbance at 313 nm providing information on rate of fibrillogenesis and fibril diameter. Gel solutions were prepared as described in EXAMPLE 15 (4 mg/mL collagen, 10:1 collagen:treatment, unless otherwise indicated) and 50 uL/well were added at 4° C. to a 384-well plate. The plate was kept at 4° C. for 4 hours before initiating fibril formation. A SpectraMax M5 at 37° C. was used to measure absorbance at 313 nm at 30 s intervals for 6 hours.
A fibrillogenesis assay as described for DS-SILY, EXAMPLE 17, performed with the conjugate DS-Dc13.

[5] = target: T1, collagen; experiment: Cryo-SEM measurement of fibril density; conditions: 10:1 molar ratio, cryo-SEM 10,000×
Method: Collagen gels were formed in the presence of each additive at a 10:1 molar ratio, as described in EXAMPLE 15, directly on the SEM stage, processed, and imaged as described. Images at 10,000× were analyzed for fibril density calculations. Images were converted to 8-bit black and white, and threshold values for each image were determined using ImageJ software (NIH). The threshold was defined as the value where all visible fibrils are white, and all void space is black. The ratio of white to black area was calculated using MatLab software. All measurements were taken in triplicate and thresholds were determined by an observer blinded to the treatment.

[6] = target: T2, Monomeric collagen (Bos taurus, UniProt P02453+P02465); experiment: Fluorescence binding of dansyl-labeled DS-peptide conjugates to immobilized collagen; conditions: 100 μM to 10 nM; 30 min at 37° C.
T2 construct: purchased Advanced Biomatrix 5010
Method: In order to determine whether the peptide conjugate maintained its ability to bind to collagen after its conjugation to DS, a fluorescent binding assay was performed. A fluorescently labeled version of SILY, Z-SILY, was synthesized by adding dansylglycine to the amine terminus. This peptide was conjugated to DS and purified using the same methods described for SILY.
Binding assays were done in a 96-well high binding plate, black with a clear bottom (Costar). Collagen was compared to untreated wells and BSA coated wells. Monomeric collagen (Advanced Biomatrix Cat. No. 5010) and BSA were immobilized at 37° C. for 1 hr by incubating 90 μL/well at concentrations of 2 mg/mL in 10 mM HCl and 1×PBS respectively. Each well was washed 3× with 1×PBS after incubating.
Wells were preincubated with DS at 37° C. for 30 min to eliminate nonspecific binding of DS to collagen. Wells were rinsed 3× with 1×PBS before incubating with DS-Z-SILY. […] Fluorescence readings were taken on an M5 Spectramax Spectrophotometer (Molecular Devices) at excitation/emission wavelengths of 335 nm/490 nm, respectively.
Fluorescence binding of DS-Z-SILY on immobilized collagen, BSA, and untreated wells are compared in FIG. 7. […]
The fluorescence binding assays described for DS-ZSILY was performed with peptide sequence ZSYIRIADTNITGC (ZDc13) (SEQ ID NO: 30).

[7] = target: T1, collagen; experiment: Viscoelastic characterization of collagen gels containing Dc13 or DS-Dc13; conditions: varying ratios of collagen to additive
Method: Collagen gels were prepared, as in EXAMPLE 15. Viscoelastic characterization was performed as described in EXAMPLE 16 on gels formed with varying ratios of collagen to additive (treatment).

[8] = tested on: Human coronary artery smooth muscle cells (HCA SMC); experiment: Gel compaction by smooth muscle cells in collagen gels; assay type: cell-based; conditions: Day 7
Method: Human coronary artery smooth muscle cells (HCA SMC) (Cascade Biologics) were cultured in growth medium (Medium 231 supplemented with smooth muscle growth factor). Cells from passage 3 were used for all experiments. Differentiation medium (Medium 231 supplemented with 1% FBS and 1×pen/strep) was used for all experiments unless otherwise noted.
Collagen gels were prepared with each additive as described with the exception that the 1×PBS sample addition was omitted to accommodate the addition of cells in media. After incubating on ice for 30 min, HCA SMCs in differentiation medium were added to the gel solutions to a final concentration of 1×10^6 cells/mL. Gels were formed in quadruplicate in 48-well non-tissue culture treated plates (Costar) for 6 hrs before adding 500 μL/well differentiation medium. Gels were freed from the well edges after 24 hrs. Medium was changed every 2-3 days and images for compaction were taken at the same time points using a Gel Doc System (Bio-Rad). The cross-sectional area of circular gels correlating to degree of compaction was determined using ImageJ software (NIH). Gels containing no cells were used as a negative control and cells in collagen gels absent additive were used as a positive control. By day 10 all gels had compacted to approximately 10% of the original gel area, and differences between additives were small.

T1 sequence (P02453 162-1217 limits assumed): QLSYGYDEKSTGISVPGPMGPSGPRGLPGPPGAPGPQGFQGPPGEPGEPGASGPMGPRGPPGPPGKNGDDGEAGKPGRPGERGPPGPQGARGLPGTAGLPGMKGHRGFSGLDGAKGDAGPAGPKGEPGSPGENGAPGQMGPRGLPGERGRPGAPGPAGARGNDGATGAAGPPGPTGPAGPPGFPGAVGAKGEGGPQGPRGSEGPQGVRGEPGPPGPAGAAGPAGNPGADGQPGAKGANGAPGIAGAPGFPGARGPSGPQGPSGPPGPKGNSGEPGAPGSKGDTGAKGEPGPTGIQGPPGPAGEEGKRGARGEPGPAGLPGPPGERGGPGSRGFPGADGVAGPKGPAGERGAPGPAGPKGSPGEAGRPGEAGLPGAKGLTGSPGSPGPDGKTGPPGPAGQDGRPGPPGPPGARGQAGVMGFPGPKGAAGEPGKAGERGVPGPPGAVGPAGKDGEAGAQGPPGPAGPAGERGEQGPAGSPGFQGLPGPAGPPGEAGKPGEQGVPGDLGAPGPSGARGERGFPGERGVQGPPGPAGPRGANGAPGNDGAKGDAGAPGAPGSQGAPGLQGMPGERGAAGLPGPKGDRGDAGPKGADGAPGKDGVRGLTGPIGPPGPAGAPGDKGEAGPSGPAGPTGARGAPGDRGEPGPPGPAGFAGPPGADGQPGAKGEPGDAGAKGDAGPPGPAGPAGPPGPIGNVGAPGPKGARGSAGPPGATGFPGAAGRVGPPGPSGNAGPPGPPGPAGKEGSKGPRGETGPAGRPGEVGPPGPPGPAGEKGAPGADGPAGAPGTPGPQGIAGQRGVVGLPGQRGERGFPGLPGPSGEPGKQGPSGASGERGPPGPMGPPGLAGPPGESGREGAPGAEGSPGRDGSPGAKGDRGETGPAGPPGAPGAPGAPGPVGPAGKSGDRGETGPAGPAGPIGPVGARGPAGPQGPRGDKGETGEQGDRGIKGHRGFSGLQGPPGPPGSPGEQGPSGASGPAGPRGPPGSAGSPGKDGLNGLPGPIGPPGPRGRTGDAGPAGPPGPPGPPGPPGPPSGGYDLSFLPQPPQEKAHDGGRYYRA
T1 sequence (P02465 80-1117 limits assumed): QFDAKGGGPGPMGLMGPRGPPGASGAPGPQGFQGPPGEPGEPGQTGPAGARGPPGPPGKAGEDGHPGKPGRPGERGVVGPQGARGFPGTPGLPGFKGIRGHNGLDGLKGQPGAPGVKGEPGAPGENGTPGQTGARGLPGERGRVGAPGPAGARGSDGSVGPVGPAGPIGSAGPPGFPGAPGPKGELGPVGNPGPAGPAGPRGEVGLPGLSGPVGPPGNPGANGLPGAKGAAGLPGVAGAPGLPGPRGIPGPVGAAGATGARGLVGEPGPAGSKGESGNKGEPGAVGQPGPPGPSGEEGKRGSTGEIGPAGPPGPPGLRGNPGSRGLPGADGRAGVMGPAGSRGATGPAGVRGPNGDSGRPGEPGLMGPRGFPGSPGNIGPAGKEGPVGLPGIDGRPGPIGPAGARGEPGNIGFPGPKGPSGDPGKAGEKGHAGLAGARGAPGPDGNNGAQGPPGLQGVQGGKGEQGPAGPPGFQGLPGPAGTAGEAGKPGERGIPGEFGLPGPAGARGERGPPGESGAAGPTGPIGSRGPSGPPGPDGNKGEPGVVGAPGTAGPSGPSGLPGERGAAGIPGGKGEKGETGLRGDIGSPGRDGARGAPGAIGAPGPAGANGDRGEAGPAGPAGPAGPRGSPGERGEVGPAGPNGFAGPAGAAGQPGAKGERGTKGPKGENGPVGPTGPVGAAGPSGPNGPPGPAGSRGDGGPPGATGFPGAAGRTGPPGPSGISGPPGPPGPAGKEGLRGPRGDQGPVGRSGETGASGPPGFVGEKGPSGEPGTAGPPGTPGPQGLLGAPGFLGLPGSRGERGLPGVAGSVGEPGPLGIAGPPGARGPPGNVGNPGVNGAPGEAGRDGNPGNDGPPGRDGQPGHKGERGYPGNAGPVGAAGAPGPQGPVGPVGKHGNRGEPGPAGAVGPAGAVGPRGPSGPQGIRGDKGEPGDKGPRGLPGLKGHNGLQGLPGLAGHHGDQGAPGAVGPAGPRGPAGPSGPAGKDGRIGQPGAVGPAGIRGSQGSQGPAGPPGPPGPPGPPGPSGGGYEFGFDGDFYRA
T2 sequence (P02453 162-1217 limits assumed): as the sequence (P02453 162-1217 limits assumed) above
T2 sequence (P02465 80-1117 limits assumed): as the sequence (P02465 80-1117 limits assumed) above

Row | Substance | platelets bound to collagen under flow [1] | elastin production [2] | inhibition of platelet activation (release of PF4 and NAP2) [3] | fibrillogenesis (absorbance at 313 nm) [4] | fibril density (ratio of fibril containing area to void space) [5] | fluorescence binding to collagen versus BSA and untreated wells [6] | stiffness (storage modulus G′) of collagen gel [7] | gel compaction, day 7 [8]
1 | DS-SILY: dermatan sulfate-RRANAALKAGELYKSILYGC conjugate; SILY/DS ratio 1.06 in Example 2, varied ratios in Example 36 (RRANAALKAGELYKSILYGC-NH2; not fully specified (residue 20); also: dermatan sulfate conjugate, SILY/DS ratio 1.06 or varied) | significantly fewer bound platelets on the peptidoglycan treated surface | significantly increased elastin production over all samples | able to inhibit collagen mediated platelet activation | decreases the rate of fibrillogenesis | significantly greater fibril density | – | – | –
2 | DS-Z-SILY: dermatan sulfate conjugated to Z-SILY (Dansyl-GRRANAALKAGELYKSILYGC-NH2; also: dermatan sulfate conjugate) | – | – | – | – | – | binds specifically to the collagen-treated wells over BSA and untreated wells | – | –
3 | dermatan sulfate [DS] | – | significantly decreased elastin production over untreated collagen | little to no effect on inhibiting platelet activation | – | – | – | increase the stiffness of the resulting collagen gel over untreated collagen | significant compared to collagen
